Where only a bound is given, the exact number is not on record here.

15 compounds from ChEMBL document CHEMBL2021829, “Design, Synthesis and Biological Evaluation of a Series of Novel Axl Kinase Inhibitors” (ACS Med Chem Lett, 2011) can be followed below.

In one assay the target is T1, Tyrosine-protein kinase Mer (Homo sapiens, UniProt Q12866).
T1 sequence (Q12866 whole entry): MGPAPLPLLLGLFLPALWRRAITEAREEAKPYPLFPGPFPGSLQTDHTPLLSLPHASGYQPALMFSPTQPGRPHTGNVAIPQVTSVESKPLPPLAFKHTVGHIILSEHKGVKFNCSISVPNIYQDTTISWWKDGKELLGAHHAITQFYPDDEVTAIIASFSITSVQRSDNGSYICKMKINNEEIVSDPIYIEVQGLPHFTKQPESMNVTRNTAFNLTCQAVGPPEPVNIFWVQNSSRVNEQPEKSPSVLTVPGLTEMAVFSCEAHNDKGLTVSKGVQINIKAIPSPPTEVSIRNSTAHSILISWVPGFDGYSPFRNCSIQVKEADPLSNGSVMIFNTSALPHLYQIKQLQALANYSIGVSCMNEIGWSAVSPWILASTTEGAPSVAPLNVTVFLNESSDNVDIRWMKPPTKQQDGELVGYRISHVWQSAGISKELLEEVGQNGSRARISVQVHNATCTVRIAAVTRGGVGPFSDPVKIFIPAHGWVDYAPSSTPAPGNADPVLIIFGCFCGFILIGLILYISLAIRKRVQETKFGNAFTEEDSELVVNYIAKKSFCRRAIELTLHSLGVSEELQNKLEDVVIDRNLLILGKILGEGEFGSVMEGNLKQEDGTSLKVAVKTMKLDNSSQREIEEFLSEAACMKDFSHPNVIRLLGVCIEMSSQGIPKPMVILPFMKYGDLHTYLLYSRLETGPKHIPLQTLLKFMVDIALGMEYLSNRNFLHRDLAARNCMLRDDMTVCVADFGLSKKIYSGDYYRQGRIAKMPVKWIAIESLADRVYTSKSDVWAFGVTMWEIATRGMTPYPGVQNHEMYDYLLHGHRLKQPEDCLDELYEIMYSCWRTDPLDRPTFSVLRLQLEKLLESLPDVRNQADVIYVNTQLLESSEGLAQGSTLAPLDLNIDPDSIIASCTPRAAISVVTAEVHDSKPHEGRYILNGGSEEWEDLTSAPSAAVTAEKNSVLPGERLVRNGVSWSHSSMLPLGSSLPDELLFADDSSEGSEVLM
The assay is described as follows: Inhibition of Mer kinase.
Conditions: not given
For the compound `CC(C)n1cnc2c(Nc3cccc(Cl)c3)nc(NCCO)nc21`, the IC50 (commonly the concentration that inhibits the measured activity by half) amounted to 11300 nM.

The target of a further assay is T2, Aurora kinase A (Homo sapiens, UniProt O14965).
T2 sequence (O14965 whole entry): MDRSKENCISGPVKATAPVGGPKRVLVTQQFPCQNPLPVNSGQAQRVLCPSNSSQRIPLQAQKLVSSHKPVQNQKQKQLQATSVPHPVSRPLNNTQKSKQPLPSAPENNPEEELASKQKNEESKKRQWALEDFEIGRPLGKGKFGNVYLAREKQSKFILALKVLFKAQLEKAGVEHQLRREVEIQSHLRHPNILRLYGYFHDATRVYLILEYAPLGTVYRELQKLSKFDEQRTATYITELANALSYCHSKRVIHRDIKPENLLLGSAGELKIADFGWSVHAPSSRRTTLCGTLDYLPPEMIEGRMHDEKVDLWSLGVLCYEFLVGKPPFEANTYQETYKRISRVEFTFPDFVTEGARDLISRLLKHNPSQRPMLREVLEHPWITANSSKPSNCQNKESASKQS
The assay is described as follows: Inhibition of Aurora A.
Conditions: not given
`CN1CCN(Cc2ccc(Nc3ncc(Cl)c(Nc4ccccc4S(=O)(=O)N(C)C)n3)cc2)CC1` [DUBERMATINIB]: the IC50 worked out at 3 nM.

A further assay concerns PSN1. The assay can be described thus: Cytotoxicity against human PSN1 cells after 96 hrs by ATP-lite luminescence assay. Format: functional, cell-based. Particulars: PSN1, 96 h.
`CN1CCN(Cc2ccc(Nc3ncc(Cl)c(Nc4ccccc4C(=O)N(C)C)n3)cc2)CC1` yielded an IC50 of 70 nM.

`CN1CCN(Cc2ccc(Nc3ncc(Cl)c(Nc4ccccc4C(=O)N4CCCC4)n3)cc2)CC1` came in with a concentration for half-maximal inhibition (IC50) of 21 nM.

In the case of `CN1CCN(Cc2ccc(Nc3ncc(Cl)c(Nc4ccccc4C(=O)NC4CC4)n3)cc2)CC1`, it took 64 nM to reach half-maximal inhibition (IC50).

`CN1CCN(Cc2ccc(Nc3ncc(Cl)c(Nc4ccccc4S(=O)(=O)N4CCCC4)n3)cc2)CC1` came in with an IC50 of 2 nM.

Compound `CN1CCN(Cc2ccc(Nc3ncc(Cl)c(Nc4ccc(F)cc4S(=O)(=O)N4CCCC4)n3)cc2)CC1` showed a concentration for half-maximal inhibition (IC50) of 9 nM.

`CN1CCN(Cc2ccc(Nc3ncc(Cl)c(-c4ccc(F)cc4S(=O)(=O)N4CCCC4)n3)cc2)CC1` had an IC50 of 192 nM.

The target in the next assay is Aurora kinase B (Homo sapiens, UniProt Q96GD4). The assay is described as follows: Inhibition of Aurora B.
Sequence of Aurora kinase B (Q96GD4 whole entry): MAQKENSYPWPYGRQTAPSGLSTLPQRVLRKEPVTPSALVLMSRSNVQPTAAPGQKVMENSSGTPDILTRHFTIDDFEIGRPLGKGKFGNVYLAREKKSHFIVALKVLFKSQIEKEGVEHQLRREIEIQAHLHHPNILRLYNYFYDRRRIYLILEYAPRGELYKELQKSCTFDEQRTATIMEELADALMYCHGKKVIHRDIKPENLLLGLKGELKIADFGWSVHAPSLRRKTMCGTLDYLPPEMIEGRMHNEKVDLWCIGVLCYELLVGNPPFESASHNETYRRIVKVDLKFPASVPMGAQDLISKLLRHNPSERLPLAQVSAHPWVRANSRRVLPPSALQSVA
Conditions: not given
As for `CN1CCN(Cc2ccc(Nc3ncc(Cl)c(Nc4ccccc4S(=O)(=O)N(C)C)n3)cc2)CC1` [DUBERMATINIB], the IC50 is 12.4 nM.

The target of a further assay is T3, Tyrosine-protein kinase receptor UFO (Homo sapiens, UniProt P30530).
T3 sequence (P30530 whole entry): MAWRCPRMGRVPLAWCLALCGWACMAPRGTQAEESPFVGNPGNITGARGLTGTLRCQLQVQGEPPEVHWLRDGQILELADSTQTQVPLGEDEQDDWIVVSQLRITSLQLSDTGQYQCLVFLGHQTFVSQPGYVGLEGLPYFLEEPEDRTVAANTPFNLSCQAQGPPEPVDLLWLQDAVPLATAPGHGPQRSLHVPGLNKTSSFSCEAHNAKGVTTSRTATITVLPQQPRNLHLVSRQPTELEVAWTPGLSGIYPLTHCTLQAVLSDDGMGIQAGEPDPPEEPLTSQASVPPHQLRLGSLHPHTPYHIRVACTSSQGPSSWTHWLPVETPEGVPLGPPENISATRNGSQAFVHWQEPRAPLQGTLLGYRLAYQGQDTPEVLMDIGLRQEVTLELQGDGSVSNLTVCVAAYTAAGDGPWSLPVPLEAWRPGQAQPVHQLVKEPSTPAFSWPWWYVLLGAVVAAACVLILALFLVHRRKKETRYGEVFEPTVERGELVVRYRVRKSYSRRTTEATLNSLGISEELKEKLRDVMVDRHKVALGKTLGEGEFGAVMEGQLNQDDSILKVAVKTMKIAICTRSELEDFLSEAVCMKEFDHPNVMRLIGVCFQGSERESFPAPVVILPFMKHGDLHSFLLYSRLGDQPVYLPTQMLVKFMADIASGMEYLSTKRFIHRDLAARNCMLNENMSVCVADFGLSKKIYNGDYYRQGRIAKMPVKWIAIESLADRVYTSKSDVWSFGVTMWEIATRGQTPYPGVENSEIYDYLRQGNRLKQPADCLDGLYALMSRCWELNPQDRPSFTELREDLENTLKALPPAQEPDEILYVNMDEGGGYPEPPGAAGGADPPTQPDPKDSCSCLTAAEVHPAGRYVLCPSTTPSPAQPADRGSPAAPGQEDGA
Conditions: not given
Regarding `Cc1cnc(Nc2ccc(N3CCN(C)CC3)c(F)c2)nc1-c1ccc(F)c(Cl)c1`, it took 2800 nM to reach half-maximal inhibition (IC50).

`Cc1cnc(Nc2ccc(N3CCN(C)CC3)c(F)c2)nc1-c1ccc(F)cc1` came in with a half-inhibitory concentration (IC50) of 6100 nM.

Compound `Cc1cnc(Nc2ccc(OCCN3CCCCC3)cc2)nc1-c1ccc(F)c(Cl)c1` registered a concentration for half-maximal inhibition (IC50) of 1630 nM.

For the compound `CN1CCN(Cc2ccc(Nc3ncc(C4CC4)c(-c4ccc(F)c(Cl)c4)n3)cc2)CC1`, the IC50 was 3400 nM.

In the case of `CN1CCN(Cc2ccc(Nc3ncc(C(F)(F)F)c(Nc4ccccc4C(=O)N(C)C)n3)cc2)CC1`, the IC50 was above 10000 nM.

The compound `CN1CCN(Cc2ccc(Nc3ncc(Cl)c(Nc4ccccc4S(=O)(=O)N4CCCC4)n3)cc2)CC1` returned an IC50 of 19 nM.

On to `CN1CCN(Cc2ccc(Nc3ncc(Cl)c(-c4ccc(F)cc4S(=O)(=O)N(C)C)n3)cc2)CC1`, for which the midpoint of inhibition, the IC50, lay at 82 nM.

`CN1CCN(Cc2ccc(Nc3ncc(Cl)c(-c4ccc(F)cc4S(=O)(=O)N4CCCC4)n3)cc2)CC1` gave an IC50 of 91 nM.

In turn, `CN1CCN(c2ccc(Nc3ncc(Cl)c(Nc4ccccc4S(=O)(=O)N(C)C)n3)cc2)CC1` yielded a half-maximal inhibitory concentration (IC50) of 1730 nM.
